Assay results from BindingDB's records for doi:10.1016/j.bmcl.2011.06.070 (Novartis Institutes For Biomedical Research, 2011).

Assay: Antagonist activity at CXCR3 in rat leukocytes assessed as inhibition of ITAC-induced cell migration by flow cytometry

Point of comparison: `O=C([C@@H]1C=C2c3cccc4[nH]cc(c34)C[C@H]2N(C(=O)Nc2ccccc2)C1)N1CCCCC1`, IC50 13 nM. Against it:
- CCN(CC)C(=O)[C@@H]1C=C2c3cccc4[nH]cc(c34)C[C@H]2N(C(=O)Nc2ccccc2)C1 [(6aR,9R)-N9,N9-diethyl-N7-phenyl-6,6a,8,9-tetrahydroindolo[4,3-fg]quinoline-7,9(4H)-dicarboxamide] — 5.7-fold higher, 74 nM
- O=C([C@@H]1C=C2c3cccc4[nH]cc(c34)C[C@H]2N(C(=O)Nc2ccccc2)C1)N1CCOCC1 — 6-fold higher, 78 nM
- O=C([C@@H]1C=C2c3cccc4[nH]cc(c34)C[C@H]2N(C(=O)Nc2ccccc2)C1)N1CCCC1 — within 1.5-fold, 19 nM
